The subject of assay [1] is Spleen cells from BDF1 female mice. Briefly: Mitogenesis Assay for Immunosuppressive Activity (concanavalin A, 3H-thymidine). It counts as cell-based. To be noted: BDF1 mouse spleen cells, Concanavalin A 5 μg/ml, 72 hours, 3H-thimidine last 18 hours. As to the method:
(§1) Mitogenesis Assay for Immunosuppressive Activity
Spleen cells from BDF1 female mice were established in RPMI with 10% fetal calf serum at 5×10^6 /mL. One hundred […] of this suspension (5×10^5 cells) were dispensed into 96-well round-bottomed microtiter plates (Linbro, Flow Laboratories). Concanavalin A (5 μg/ml)was added as the mitogenic stimulus, and the final volume in the microtiter wells was adjusted to 200 μL with RPMI. Cell cultures were incubated for 72 hours at 37° C. in a 5% CO2 atmosphere and pulsed with 0.5 μCi ^3 H-thymidine (specific activity […]) for the last 18 hours of the 72 hour culture. The cells were harvested on an automated multiple sample harvester and cell-associated radioactivity counted in a Beckman liquid scintillation counter. The results are expressed as the mean values derived from quadruplicate measurements. Cell viability was determined by trypan blue exclusion after 72 hours of incubation. Compounds to be tested were added to the microtiter plates at the appropriate dilutions prior to the addition of cells.

Assay [2] concerns Saccharomyces cerevisiae. Briefly: Assay for Antifungal Activity (zones of inhibition on agar). Type of assay: cell-based. To be noted: YPD agar wells, 48 hours. Here is the method: Assay for Antifungal Activity
Yeast organism (Saccharomyces cerevisiae) in logarithmic growth were plated on complete agar medium (YPD). Compounds dissolved in an appropriate aqueous or organic solvent were placed in wells punched in the agar. Plates were incubated for 48 hours and zones of inhibition were measured.
as §1

Take `CO[C@H]1CCC[C@@H](C[C@@H](C)[C@@H]2CC(=O)[C@H](C)/C=C(\C)[C@@H](O)[C@@H](OC)C(=O)[C@H](C)C[C@H](C)/C=C/C=C/C=C(\C)[C@@H](OC)C[C@@H]3CC[C@@H](C)[C@@](O)(O3)C(=O)C(=O)N3CCCC[C@H]3C(=O)O2)C1` [Example 1, 43-Deshydroxyrapamycin]: the IC50 – broadly, the point on the concentration scale where inhibition reaches its midpoint – in assay [1] came out at 0.0005 µM.

Consider 14-Desoxo-13-Methoxy-Rapamycin, for which the “Yeast IC12” value in assay [2] is listed as 52 ng/mL. Also, the IC50 in assay [1] stood at 1 µM.

In assay [1], `CO[C@H]1C[C@@H]2CC[C@@H](C)[C@](O)(CC(=O)N3CCCC[C@H]3C(=O)O[C@H]([C@H](C)C[C@@H]3CC[C@@H](O)[C@H](OC)C3)CC(=O)[C@H](C)/C=C(\C)[C@@H](O)[C@@H](OC)C(=O)[C@H](C)C[C@H](C)/C=C/C=C/C=C/1C)O2` [Example 3, 14-Deoxorapamycin] showed an IC50 of 0.015 µM.

Values taken from US5661156A, “Rapamycin derivatives” (SmithKline Beecham Corporation, priority 1995, dated 1997).
